Like-named read-outs stand apart in the source and are kept apart here.
Assays:
[1] = Metabolic soft-spot determination in HLM using LC/UV/Q-TOF (Triple TOF); conditions: 8 min
Method: (§1) Supernatants of incubation samples were dried under nitrogen and then reconstituted in 100 μL of 5% acetonitrile in water prior to analysis using LC/UV/HRMS.
(§2) An LC/MS system consisted of an LC instrument (Shimadzu HPLC with a photodiode array detector (PDA), Shimadzu, Kyoto, Japan) and TripleTOF (AB 4600, Sciex, Framingham, MA, USA) was employed. LC separation was carried out using a Phenomenex Kinetex-C18 (2.1 × 150 mm, 2.6 μm, CA) and a mobile phase comprised of 0.1% formic acid (v/v) in water (solvent A) and 0.1% formic acid in acetonitrile (v/v) (solvent B). The total running time was 5 min, and the flow rate was 0.4 mL/min. […] The mass spectrometer was operating in the positive electrospray ionization mode in the m/z range of 100–1000. Dynamic background subtraction (DBS) was employed to record full-scan MS and MS/MS data simultaneously. Two approaches were used for finding and confirming protonated molecules of major metabolites. One approach was to directly get the information by reviewing full-scan MS spectra of peaks in unprocessed LC/MS dataset, which had very similar LC retention times and peak shapes to those of major metabolites shown in corresponding LC/UV profiles.

[2] = Metabolic soft-spot determination in HLM using LC/UV/Qtrap
Method: A specific incubation time for the individual test compounds was set up for 1–20 min based on their metabolic stability T1/2 values (Table 1). An LC/UV/Qtrap system with an Ultimate XB-C18 column (100 mm × 2.1 mm, 1.8 µm, Welch, China) was employed for quantitative and qualitative analyses of metabolites of the test compounds in HLM incubations. The mobile phases were the same as the metabolic stability assay, and the flow rate was 0.3 mL/min. […] The mass spectrometer was operated in positive ion mode using a successive multiple ion monitoring-triggered enhanced product ion scan (MIM-EPI) mode. […] All the ion source parameters were set as the following values: CUR: 30 psi; IS: 5500 V; TEM: 500 °C; GS1 and GS2: 50 psi; DP: 70 V. A criterion for the data-dependent EPI was set for the three most intense ions in each dynamic background subtraction (DBS) survey scan spectrum with an intensity threshold of 500 cps. The CE was set to 5 eV for the survey scan and 40 eV with CE spread (CES) of 15 eV for the dependent EPI scan. The scan speed for ER and EPI were 250 amu/s and 20,000 amu/s, respectively. LC/UV profiles of individual incubation were generated to reveal major metabolites using wavelengths on the λmax of parent compounds (Table S1). Protonated molecules of major metabolites were determined by matching major metabolite peak(s) in LC/UV profiles to similar ion peaks shown in LC/MS profiles from the MIM scanning or data processing. EIC, PIF, and NLF tools on PeakView SoftwareTM 1.2 (AB SCIEX, Foster City, CA, USA) were used to process LC/MS and LC/MS2 datasets. MS/MS spectral data of major metabolites were retrieved from corresponding LC/MS2 data based on their protonated molecules. The structural characterization of major metabolites was carried based on interpretation of their MS/MS spectra and biotransformation knowledge.

[3] = human, 3 µM, pH 7.4; for Major metabolites relative abundance (% of total UV peak areas of drug and its metabolites): 60 min
Method: as §1, §2

in vitro = conditions: human, microsomes, pH 7.4
[4] = 0.5 µM, HLM 0.5 mg/mL, 60 min, LC/MS analysis of the parent drug; cited from earlier work
[5] = HLM, 10 µM, 60 min, cited from earlier work
[6] = Determination of metabolic stability in HLM; conditions: human, microsomes, pH 7.4

With COc1ccc(CCNCCCC(C#N)(c2ccc(OC)c(OC)c2)C(C)C)cc1OC (centres unmarked) [V5] the “Major metabolites relative abundance (% of total UV peak areas of drug and its metabolites)” value ([1]; verapamil 5 μM) was 14.7%.
In the case of O=C1CC2(CCCC2)CC(=O)N1CCCC[N+]1([O-])CCN(c2ncccn2)CC1 [B15], the “Major metabolites relative abundance (% of total UV peak areas of drug and its metabolites)” value ([1]; buspirone 3 μM) is reported as 7.1%.
For Cc1ncc2n1-c1ccc(Cl)cc1C(c1ccccc1F)=NC2 [Midazolam, midazolam], the “Disappearance of the parent” value ([2]; midazolam 3 μM, 2 min, HLM) was 31%.
With O=C1CC2(CCCC2)C(O)C(=O)N1CCCCN1CCN(c2ncccn2)CC1 (centres unmarked) [B10] the “Major metabolites relative abundance (% of total UV peak areas of drug and its metabolites)” value ([1]; buspirone 3 μM) was 16.5%.
In the case of CN1CCN2c3ncc(O)cc3Cc3ccccc3C2C1 (centres unmarked) [M1], the “Major metabolites relative abundance (% of total UV peak areas of drug and its metabolites)” value [3] is reported as 10.7%.
With CCNCc1cc(Nc2ccnc3cc(Cl)ccc23)ccc1O [AM1] the “Major metabolites relative abundance (% of total UV peak areas of drug and its metabolites)” value ([2]; human, 1 min, 3 µM, pH 7.4) was “Deethylation: AM1 (26.5%)”.
With CCN(CC)Cc1cc(Nc2ccnc3cc(Cl)ccc23)ccc1O [Amodiaquine, amodiaquine] the “Disappearance of the parent” value ([2]; human, 1 min, 3 µM, pH 7.4) was 23%, the “The parent drug relative abundance (% of total UV peak areas of drug and its metabolites)” value ([2]; human, 1 min, 3 µM, pH 7.4) was “Amodiaquine (77.0%)” and the half-life at 0.5 µM (in vitro) was 1.3 min.
For O=C1CC2(CCCC2)CC(=O)N1CCCCN1CCN(c2ncccn2)CC1 [Buspirone, buspirone, reference compound], the “The parent drug relative abundance (% of total UV peak areas of drug and its metabolites)” value ([3]; 8 min) is given as “Buspirone (59.1%)” and the “T1/2 in HLM” value [4] is given as “Buspirone ^d (7.6 min)”.
For CN(C)CCC1(c2ccccc2)CCc2ccccc2C1=O (centres unmarked) [nafenodone], the “Disappearance of the parent” value ([5]; estimated) is given as “over 80%” and the “Number of oxidative metabolites formed” value [5] is given as 26.
For CNCCCC(C#N)(c1ccc(OC)c(OC)c1)C(C)C (centres unmarked) [V1], the “Major metabolites relative abundance (% of total UV peak areas of drug and its metabolites)” value ([1]; verapamil 5 μM) was 6.1%.
For c1ccc2c(c1)Cc1cccnc1N1CCNCC21 (centres unmarked) [M2], the “Major metabolites relative abundance (% of total UV peak areas of drug and its metabolites)” value [3] was 8.1%.
For CNCCCC(C#N)(c1ccc(OC)c(OC)c1)C(C)C (centres unmarked) [VM2], the “Major metabolites relative abundance (% of total UV peak areas of drug and its metabolites)” value ([2]; human, 4 min, 3 µM, pH 7.4) was 8.9%.
For COc1ccc2c(c1)[C@]13CCCC[C@@H]1[C@H](C2)N(C)CC3 [Dextromethorphan, dextromethorphan], the “The parent drug relative abundance (% of total UV peak areas of drug and its metabolites)” value ([2]; dextromethorphan 3 μM, 30 min, HLM) was “Dextromethorphan (75.5%)”, the “The parent drug relative abundance (% of total UV peak areas of drug and its metabolites)” value ([2]; dextromethorphan 3 μM, 30 min, HLM, listed as dextromethorphan) was 75.5% and the half-life at 0.5 µM [6] was 24 min.
For OCc1ncc2n1-c1ccc(Cl)cc1C(c1ccccc1F)=NC2 [MM2], the “Major metabolites relative abundance (% of total UV peak areas of drug and its metabolites)” value ([2]; midazolam 3 μM, 2 min, HLM) was “Mono-oxidation: MM2 (29.0%)”.
In the case of COc1ccc(CCNCCCC(C#N)(c2ccc(OC)c(OC)c2)C(C)C)cc1OC (centres unmarked) [VM8], the “Major metabolites relative abundance (% of total UV peak areas of drug and its metabolites)” value ([2]; human, 4 min, 3 µM, pH 7.4) is reported as 19.0%.
For O=C1CC2(CCCC2)CC(=O)N1CCCCN1CCN(c2ncc(O)cn2)CC1 [B12], the “Major metabolites relative abundance (% of total UV peak areas of drug and its metabolites)” value ([1]; buspirone 3 μM) was 5.2%.
In the case of O=C1CC2(CCC(O)C2)CC(=O)N1CCCCN1CCN(c2ncccn2)CC1 (centres unmarked) [B3], the “Major metabolites relative abundance (% of total UV peak areas of drug and its metabolites)” value ([1]; buspirone 3 μM) is reported as 12.1%.

From article PMC9693510, “High-Throughput Metabolic Soft-Spot Identification in Liver Microsomes by LC/UV/MS: Application of a Single Variable Incubation Time Approach” (Molecules, 2022)
